± gives the expanded uncertainty stated by the source.

A short description of this data set: Molar enthalpy of transition or fusion. The note with it: Crystal; Adiabatic calorimetry.

For `CC(C)(C)c1ccc(Oc2ccccc2)cc1` [4-tert-butylphenyl phenyl ether], the “Molar enthalpy of transition or fusion” value stood at 5.255 ± 0.0335 kcal/mol.

The record behind these values is the NIST ThermoML archive (doi:10.1016/j.jct.2015.03.019).
